Test results: patent US20060069132A1, “Azolecarboxamide herbicides” (priority 2004, published 2006)

Experiments:
barnyardgrass = assay: Test C flooded paddy test; format: in vivo, Echinochloa crus-galli
Summary of the method: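 Postemergence sprays were applied to plants 2 to 18 cm tall (1- to 4-leaf stage); in the flooded paddy test, barnyardgrass was grown to the 2-leaf stage. After 12 to 14 days in a greenhouse, injury was visually rated against untreated controls on a 0–100 scale (100 = complete control).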

giant foxtail = assay: Test C pre-/postemergence herbicide test; format: in vivo, Setaria faberi; settings: preemergence; for Plant response rating, Foxtail, Giant: visual, 12 to 14 days
Summary of the method: (§1)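 Pre/post spray; non-phytotoxic solvent + surfactant. Post-timing 1–4 leaves, 2–18 cm. Read-out: visual % control vs untreated, day 12–14, greenhouse.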

[1] = test system: smallflower umbrella sedge; assay: Test C flooded paddy test; format: in vivo, Cyperus difformis
lambsquarters = assay: Test C pre-/postemergence herbicide test; format: in vivo, Chenopodium album; settings: preemergence
Summary of the method: as §1

eastern black nightshade = assay: Test C pre-/postemergence herbicide test; format: in vivo, Solanum ptycanthum; settings: preemergence
Summary of the method: as §1

redroot pigweed = assay: Test A pre-/postemergence herbicide test; format: in vivo, Amaranthus retroflexus
Summary of the method: (§2)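 Greenhouse injury scoring (0–100, complete control = 100) at approximately ten days follows simultaneous pre- and postemergence application. Soil received a directed spray after seeding; seedlings of 2–10 cm at the one- to two-leaf stage were sprayed to runoff.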

morningglory [2] = assay: Test A pre-/postemergence herbicide test; format: in vivo, Ipomoea spp.
Summary of the method: as §2

velvetleaf = assay: Test A pre-/postemergence herbicide test; format: in vivo, Abutilon theophrasti
Summary of the method: as §2

bermudagrass = assay: Test C pre-/postemergence herbicide test; format: in vivo, Cynodon dactylon
Summary of the method: as §1

common ragweed = assay: Test C pre-/postemergence herbicide test; format: in vivo, Ambrosia elatior; set-up: key to Plant response rating, Ragweed: 0 = no effect, 100 = complete control; settings: preemergence
Summary of the method: as §1

yellow nutsedge = assay: Test C pre-/postemergence herbicide test; format: in vivo, Cyperus esculentus; settings: preemergence
Summary of the method: as §1

morningglory [3] = assay: Test C pre-/postemergence herbicide test; format: in vivo, Ipomoea coccinea; set-up: key to Plant response rating, Morningglory: 0 = no effect, 100 = complete control; settings: preemergence
Summary of the method: as §1

[4] = 62 g ai/ha, scale 0 to 100 (0 no effect, 100 complete control)
[5] = 250 g ai/ha, scale of 0 to 100, 0 is no effect, 100 is complete control
[6] = 500 g ai/ha, visual rating after 12 to 14 days, scale 0 to 100 (0 no effect, 100 complete control)
[7] = 125 g ai/ha, scale 0 (no effect) to 100 (complete control), visual, 12 to 14 days
[8] = Postemergence, 250 g ai/ha, 0 to 100 scale, 0 no effect, 100 complete control
[9] = Postemergence, 1000 g ai/ha, 0 to 100 scale, 0 no effect, 100 complete control
[10] = Preemergence, 1000 g ai/ha, visual rating, 0 to 100 scale (0 no effect, 100 complete control)
[11] = preemergence, 250 g ai/ha, visual injury, 0 to 100 scale (0 no effect, 100 complete control)

## CCn1nc(C(C)(C)C)cc1C(=O)Nc1cccc(SC)c1 [Compound 131]
barnyardgrass; [4]
  Barnyardgrass plant response rating: 0
barnyardgrass; 125 g ai/ha, scale of 0 to 100, 0 is no effect, 100 is complete control
  Barnyardgrass plant response rating: 0
barnyardgrass; [5]
  Barnyardgrass plant response rating: 10
barnyardgrass; [6]
  Plant response rating, Barnyardgrass: 30
Giant foxtail; 62 g ai/ha
  Plant response rating (0 = no effect, 100 = complete control), Foxtail, Giant: 20
Giant foxtail; 125 g ai/ha, scale 0 (no effect) to 100 (complete control)
  Plant response rating, Foxtail, Giant: 20
Giant foxtail; 250 g ai/ha, scale 0 to 100 (0 no effect, 100 complete control)
  Plant response rating, Foxtail, Giant: 45
[1]; [4]
  Sedge, Umbrella plant response rating: 55
[1]; 125 g ai/ha, scale 0 to 100 (0 no effect, 100 complete control)
  Sedge, Umbrella plant response rating: 65
[1]; [5]
  Sedge, Umbrella plant response rating: 70
[1]; [6]
  Plant response rating, Sedge, Umbrella: 80
lambsquarters; 62 g ai/ha
  Plant response rating (0 = no effect, 100 = complete control), Lambsquarters: 95
lambsquarters; [7]
  Plant response rating, Lambsquarters: 100
Eastern black nightshade; 62 g ai/ha
  Plant response rating (0 = no effect, 100 = complete control), Nightshade: 55
Eastern black nightshade; [7]
  Plant response rating, Nightshade: 95
Redroot pigweed; [8]
  Pigweed plant response rating: 45
Redroot pigweed; [9]
  Plant response rating, Pigweed: 75
Redroot pigweed; [10]
  Pigweed plant response rating: 90
Redroot pigweed; [11]
  Pigweed plant response rating: 40
Morningglory [2]; [8]
  Morningglory plant response rating: 15
Morningglory [2]; [9]
  Plant response rating, Morningglory: 15
Morningglory [2]; [10]
  Morningglory plant response rating: 35
Morningglory [2]; [11]
  Morningglory plant response rating: 15
velvetleaf; [8]
  Velvetleaf plant response rating: 15
velvetleaf; [9]
  Plant response rating, Velvetleaf: 10
velvetleaf; [10]
  Velvetleaf plant response rating: 60
velvetleaf; [11]
  Velvetleaf plant response rating: 10
bermudagrass; 31 g ai/ha, scale 0 to 100, 0 no effect, 100 complete control, last section of Table C (species set of preemergence test)
  Plant response rating, Bermudagrass: 0
bermudagrass; 62 g ai/ha, preemergence
  Plant response rating (0 = no effect, 100 = complete control), Bermudagrass: 15
bermudagrass; 125 g ai/ha, scale 0 (no effect) to 100 (complete control), visual, 12 to 14 days, preemergence
  Plant response rating, Bermudagrass: 90
bermudagrass; 250 g ai/ha, scale 0 to 100 (0 no effect, 100 complete control), visual, 12 to 14 days, preemergence
  Plant response rating, Bermudagrass: 95
Common ragweed; 62 g ai/ha
  Plant response rating (0 = no effect, 100 = complete control), Ragweed: 40
Common ragweed; [7]
  Plant response rating, Ragweed: 50
Yellow nutsedge; 31 g ai/ha, scale 0 to 100, last section of Table C
  Plant response rating, Nutsedge, Yellow: 0
Yellow nutsedge; 62 g ai/ha
  Plant response rating (0 = no effect, 100 = complete control), Nutsedge, Yellow: 0
Yellow nutsedge; [7]
  Plant response rating, Nutsedge, Yellow: 0
Morningglory [3]; 62 g ai/ha
  Plant response rating (0 = no effect, 100 = complete control), Morningglory: 0
Morningglory [3]; [7]
  Plant response rating, Morningglory: 0
